For this assay, the target named is Glycogen synthase kinase-3 alpha (Homo sapiens) (UniProt P49840). As to the kind of experiment: concentration-response blocking of human GSK3A – biochemical, luminescence, cell-free homogeneous, retest, dose response (AID 463203). To be noted: GSK-3 alpha enzyme, ADP-Glo luminescence, 60 min. (In general: In ADP-Glo the light output rises with the ADP produced.)

The source made the active and inactive calls.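 The calls were made as follows: active = more than half of replicate measurements showing over 20% loss of kinase signal relative to plate controls; inconclusive = some but at most half of replicates over 20% loss; inactive = no replicate over 20% signal loss.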

Chain of Glycogen synthase kinase-3 alpha (Homo sapiens) (P49840 whole entry, looked up): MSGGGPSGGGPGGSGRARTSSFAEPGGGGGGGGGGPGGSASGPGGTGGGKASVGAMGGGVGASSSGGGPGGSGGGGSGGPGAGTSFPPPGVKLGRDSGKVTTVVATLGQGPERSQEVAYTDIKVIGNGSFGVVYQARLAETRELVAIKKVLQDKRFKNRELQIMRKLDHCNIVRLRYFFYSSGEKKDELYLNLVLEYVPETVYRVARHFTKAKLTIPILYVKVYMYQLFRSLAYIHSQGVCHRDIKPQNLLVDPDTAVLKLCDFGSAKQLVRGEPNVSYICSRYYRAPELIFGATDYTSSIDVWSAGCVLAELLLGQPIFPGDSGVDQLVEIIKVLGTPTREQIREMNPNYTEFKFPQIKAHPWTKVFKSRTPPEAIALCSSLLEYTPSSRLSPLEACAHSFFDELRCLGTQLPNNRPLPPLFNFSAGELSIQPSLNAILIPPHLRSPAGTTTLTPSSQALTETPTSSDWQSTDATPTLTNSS

Turning to `O=c1cc(-c2ccccc2)oc2ccccc12`, the AC50 was > 30 µM (inactive).

Take `COc1ccc(/C=C2\Oc3cc(OCC(=O)N4CC(O)C[C@H]4C(=O)O)ccc3C2=O)c(OC)c1OC` (stereo partly specified): the AC50 was > 30 µM (inactive).

In the case of `O=C(COc1ccccc1Cl)NC1CC1`, the AC50 was > 30 µM (inactive).

For the compound `COc1cc(/C=N/NC(=O)c2cccnc2)cc(Br)c1O`, the AC50 is > 30 µM (inactive).

Turning to `Nc1nc(N)nc(-c2cc([N+](=O)[O-])ccc2O)n1`, the half-maximal activity concentration (AC50) is 2.41 µM.

On to `COc1ccc2nc(NC(=O)CSc3nnc(-c4ccoc4C)n3C)sc2c1`, for which the AC50 was 4.62 µM.

As for `CC(=O)O[C@@H]1[C@@H](O)[C@@H](O)[C@H](Oc2c(-c3ccc(O)cc3)oc3c(CC=C(C)C)c(O)cc(O)c3c2=O)O[C@H]1C`, the AC50 is 14.4 µM.

Turning to `NC(=O)c1nnn(-c2ccccc2)c1N`, the AC50 is > 30 µM (inactive).

For the compound `CNc1cc(N2CCCC2)ccc1[N+](=O)[O-]`, the AC50 is > 30 µM (inactive).

On to `Fc1cccc(/C=N/Nc2ccc3ccccc3n2)c1`, for which the AC50 is > 30 µM (inactive).

For the compound `COc1ccc(OCC(=O)Nc2ccc3c(c2)C(=O)NC3=O)cc1`, the half-maximal activity concentration (AC50) is 12.2 µM.

For the compound `O=C(COC(=O)c1cccc(S(=O)(=O)N2CCOCC2)c1)Nc1ccc(Cl)cn1`, the half-maximal activity concentration (AC50) was 7.3 µM.

Turning to `CCc1ccc(/C=c2\s/c(=C\C(=O)C(C)(C)C)[nH]c2=O)cc1`, the AC50 was > 30 µM (inactive).

In the case of `O=Cc1cc(N=Nc2ccc(S(=O)(=O)O)cc2)ccc1O`, the AC50 is > 30 µM (inactive).

As for `O=C(O)c1cccc2c1C(=O)c1ccccc1C2=O`, the AC50 is > 30 µM (inactive).

With `CC(C)(C)OC(=O)N1CCC(NC(=O)c2[nH]cnc2C(=O)Nc2ccccc2)CC1`, the AC50 is > 30 µM (inactive).

On to `CCOc1ccc(Nc2nc(N(C)c3ccccc3)nc(N)c2[N+](=O)[O-])cc1`, for which the AC50 was > 30 µM (inactive).

On to `N/C(=N\OC(=O)c1ccc(Br)cc1)c1cccc([N+](=O)[O-])c1`, for which the AC50 is > 30 µM (inactive).

Regarding `N#Cc1c(Cl)c(Cl)c2nnc(-c3ccc(Br)cc3)n2c1Cl`, the AC50 is 20.6 µM.

In the case of `CCOC(=O)C1=C(c2ccccc2)Nc2ncnn2C1c1cccc(OC)c1OC` (stereo unspecified), the AC50 is 9 µM.

As for `COc1ccccc1Nc1ccc(S(=O)(=O)N2CCCCC2)cc1[N+](=O)[O-]`, the AC50 was > 30 µM (inactive).

For `COc1ccc(-c2csc3ncnc(NCCCO)c23)cc1`, the AC50 was 20.6 µM.

On to `CCOc1ccc(S(=O)(=O)Nc2cccc(C(=O)NCCCn3ccnc3)c2)cc1`, for which the AC50 was > 30 µM (inactive).

For the compound `O=P(COCCOCP(=O)(c1ccccc1)c1ccccc1)(c1ccccc1)c1ccccc1`, the AC50 is > 30 µM (inactive).

For the compound `CCCCOC(=O)c1ccc(N/C(=N\S(=O)(=O)c2ccccc2)c2ccccc2)cc1`, the AC50 was > 30 µM (inactive).

As to `Cc1onc(-c2ccccc2Cl)c1C(=O)Nc1cccc(-c2nc3ncccn3c2C)c1`, the AC50 is > 30 µM (inactive).

Consider `O=C(Nc1ncc([N+](=O)[O-])s1)c1ccc2c(c1)OCO2`, for which the AC50 was > 30 µM (inactive).

Consider `NC(=O)c1sc2nc3c(c(-c4ccco4)c2c1N)CCCC3`, for which the half-maximal activity concentration (AC50) is 13.6 µM.

As to `CCOc1ccc(N2C(=O)C3C(c4ccccc4F)NN(C(=O)c4ccc(C)cc4)C3C2=O)cc1` (stereo unspecified), the AC50 is > 30 µM (inactive).

As for `COc1ccccc1NC(=O)c1ccc(C(=O)c2ccccc2)o1`, the AC50 is > 30 µM (inactive).

As for `O=C(Nc1ccccc1N1CCN(C(=O)c2ccccc2)CC1)c1ccc(Br)o1`, the half-maximal activity concentration (AC50) is 3.51 µM.

As to `Cc1cc(=O)[nH]c2cc(O)ccc12`, the AC50 is > 30 µM (inactive).

As to `O=C(O)c1cc(NC(=O)c2ccccc2[N+](=O)[O-])ccc1O`, the AC50 is > 30 µM (inactive).

As to `CN(C)/C=C/c1c([N+](=O)[O-])c2ccc(O)cc2n1-c1ccccc1`, the AC50 is 2.08 µM.

Take `CC1=C(C(=O)OCc2ccc3c(c2)OCO3)C(c2ccccc2OCc2ccccc2)NC(=O)N1` (stereo unspecified): the AC50 was > 30 µM (inactive).

Turning to `COc1cc2c(cc1OC)-c1nnc(C)n1C1(CCCC1)C2`, the AC50 is 30.2 µM.

Regarding `COc1ccc2cc(C(N)=O)c(=Nc3ccc(C)cc3)oc2c1`, the AC50 is > 30 µM (inactive).

For the compound `Cn1c(=O)c2[nH]c(CNc3ccc(C(=O)O)cc3)nc2n(C)c1=O`, the AC50 is > 30 µM (inactive).

On to `Nc1ncc([N+](=O)[O-])s1`, for which the AC50 was > 30 µM (inactive).

With `CCC(C)Nc1nc(N)c([N+](=O)[O-])c(N2CCCCCC2)n1` (stereo unspecified), the AC50 is 10.9 µM.

For `CCSc1ncnc2c1sc1nc3c(cc12)COC(C)(C)C3`, the AC50 is > 30 µM (inactive).

Turning to `O=C1/C(=C/c2cccc([N+](=O)[O-])c2)N2CCC1CC2`, the AC50 was > 30 µM (inactive).

Consider `Cn1c(SCC(=O)N/N=C/C=C\c2ccco2)nc2ccccc21`, for which the AC50 was > 30 µM (inactive).

Consider `CC1CN(c2nc(Nc3ccccc3F)nc(N)c2[N+](=O)[O-])CC(C)O1` (stereo unspecified), for which the AC50 was 9.19 µM.

Regarding `O=C(NCCCN1CCN(CCCNC(=O)c2ccc3c(c2)OCO3)CC1)c1ccc2c(c1)OCO2`, the AC50 was 27.7 µM.

Take `O=C(c1ccc2c3n(nc2c1)-c1ccccc1CO3)N1CCCCC1`: the AC50 was 26.4 µM.

In the case of `COc1cc(-c2nnc(SCc3c(F)cccc3Cl)o2)cc(OC)c1OC`, the AC50 is > 30 µM (inactive).

Consider `O=[N+]([O-])c1ccc(NCCCN2CCOCC2)c2ncccc12`, for which the AC50 is > 30 µM (inactive).

Regarding `COc1ccc(C(=O)c2cc(C(C)=O)c(Nc3ccccc3)s2)cc1`, the AC50 is > 30 µM (inactive).

In the case of `O=C(Nc1c(C(=O)O)oc2ccc(Br)cc12)c1ccccc1`, the AC50 is 3.44 µM.

Consider `CC1CCCC(C)N1C(=O)COC(=O)c1c[nH]c2ccccc12` (stereo unspecified), for which the AC50 was > 30 µM (inactive).

As to `Cc1c(C(=O)N/N=C/c2ccc(O)c(Br)c2)sc(N)c1C#N`, the AC50 was 1.02 µM.

Consider `CC1CCCCC12NC(=O)N(CC(=O)Nc1sc3c(c1C(N)=O)CCC3)C2=O` (stereo unspecified), for which the AC50 is 11.4 µM.

On to `N#C/C(=N\Nc1ccc(Cl)cc1)C(N)=S`, for which the AC50 is > 30 µM (inactive).

For `Cc1nc(N2CCOCC2)nc(N2CCCCC2)c1[N+](=O)[O-]`, the AC50 is > 30 µM (inactive).

As to `Cc1ccc2c(c1N)C(=O)c1ccccc1C2=O`, the AC50 was > 30 µM (inactive).

On to `COc1cccc(/C=C2\Oc3cc(OCC(=O)N4CCC[C@H]4C(=O)O)ccc3C2=O)c1`, for which the AC50 is > 30 µM (inactive).

As for `Cc1ccc(NC(=O)CSc2nnc(-c3ccncc3)o2)cc1`, the AC50 was > 30 µM (inactive).

For the compound `CCOc1cc(/C=N/Nc2ncnc(Cl)c2N)ccc1O`, the concentration at half-maximal activity (AC50) was 29.6 µM.

As to `COc1ccc(-c2cnc(N)nc2-c2ccc(OC)cc2O)cc1`, the AC50 was 9.75 µM.

As for `CC1(C)CC(=O)C=C(c2cccc(O)c2)C1`, the AC50 was > 30 µM (inactive).

For the compound `Cc1ccc(C)c(-n2c3nc(=O)n(C)c(=O)c-3cc3ccccc32)c1`, the half-maximal activity concentration (AC50) is 31.3 µM.

Turning to `COC(=O)C1=C(C(=O)OC)C(c2cc(Cl)ccc2O)c2sc(=O)[nH]c2S1` (stereo unspecified), the AC50 was 28.4 µM.

For `COc1ccc(/C=C2\Oc3cc(OCC(=O)N4CCC[C@H]4C(=O)O)ccc3C2=O)c(OC)c1`, the AC50 was > 30 µM (inactive).

Regarding `Clc1cccc(/C=N/Nc2ncnc3ccccc23)c1`, the AC50 is > 30 µM (inactive).

Turning to `Nc1nonc1-n1nnc(C(=O)N/N=C\c2cccc(Cl)c2)c1CN1CCOCC1`, the AC50 is 15.2 µM.

The AC50 is the concentration giving half of the maximal activity seen.

The values are drawn from PubChem BioAssay AID463203 (Broad Institute, 2010).
